Assays:
Myzus persicae = Myzus persicae oral test; type: in vivo; conditions: application rate 20 ppm, oral uptake through parafilm, after 5 days
Procedure: Myzus persicae—Oral Test Solvent: 100 parts by weight of acetone
To produce an appropriate active ingredient formulation, 1 part by weight of active ingredient is dissolved with the stated parts by weight of solvent and made up with water until the desired concentration is attained.
50 μl of the active ingredient formulation are transferred into microtitre plates and made up to a final volume of 200 μl with 150 μl of IPL41 insect medium (33%+15% sugar). Subsequently, the plates are sealed with parafilm, which a mixed population of green peach aphids (Myzus persicae) within a second microtitre plate is able to puncture and imbibe the solution through it.
After 5 days, the efficacy in % is determined. 100% means that all the aphids have been killed; 0% means that no aphids have been killed.

[1] = log P by HPLC on reversed-phase column (EEC directive 79/831 Annex V.A8); type: physicochemical; conditions: for log p: HPLC on reversed-phase column (footnote a); for log p a): HPLC on reversed-phase column
Procedure: a) The determination of the [M+H]^+ by LC-MS in the acidic range was effected at pH 2.7, with acetonitrile (containing 0.1% formic acid) and water as eluents; linear gradient from 10% acetonitrile to 95% acetonitrile, instrument: Agilent 1100 LC system, Agilent MSD system, HTS PAL.
The log P values reported in the tables and preparation examples above were determined in accordance with EEC directive 79/831 Annex V.A8 by HPLC (High Performance Liquid Chromatography) using a reversed-phase column (C18). Temperature 43° C.

| SMILES | efficacy (Myzus persicae) [%] | log p [1] | log p a) [1] |
| --- | --- | --- | --- |
| O=C(COc1ccc(Cl)nc1)c1c([O-])n(Cc2cnc(Cl)s2)c2cccc[n+]12 [Example I-1-084] | 100 | 2.17 |  |
| O=C(COc1ccccn1)c1c([O-])n(Cc2cnc(Cl)s2)c2cccc[n+]12 [Example I-1-088] | 100 | 1.32 |  |
| Cc1ccc2n(Cc3ccc(Cl)nc3)c([O-])c(C(=O)CCl)[n+]2c1 [Example I-1-091] | 100 | 1.87 |  |
| Cc1ccc[n+]2c(C(=O)Cn3cncn3)c([O-])n(Cc3cnc(Cl)s3)c12 [Example I-1-096] | 100 | 1.31 |  |
| Cc1cccc2n(Cc3ccc(Cl)nc3)c([O-])c(C(=O)CCl)[n+]12 [Example I-1-098] | 100 | 1.74 |  |
| Cc1cccc2n(Cc3ccc(Cl)nc3)c([O-])c(C(=O)Cn3cccn3)[n+]12 [Example I-1-103] | 100 | 1.47 |  |
| O=C(CCl)c1c([O-])n(Cc2cnc(Cl)s2)c2ccc(Cl)c[n+]12 [Example I-1-108] | 100 | 2.2 |  |
| COCC(=O)c1c([O-])n(Cc2cncc(Cl)c2)c2cccc[n+]12 [Example I-1-109] | 100 | 1.15 |  |
| O=C(CCl)c1c([O-])n(Cc2ccc(Cl)nc2)c2c(F)cc(F)c[n+]12 [Example I-1-110] | 100 | 1.96 |  |
| CCCOCC(=O)c1c([O-])n(Cc2cnc(Cl)s2)c2ccc(Cl)c[n+]12 [Example I-1-117] | 100 | 2.41 |  |
| COCC(=O)c1c([O-])n(Cc2cnc(Cl)s2)c2ccc(Cl)c[n+]12 [Example I-1-118] | 100 | 1.69 |  |
| CCOCC(=O)c1c([O-])n(Cc2cnc(Cl)s2)c2ccc(Cl)c[n+]12 [Example I-1-119] | 100 | 1.96 |  |
| COC(=O)c1c([O-])n(Cc2cnc(Cl)s2)c2cccc(Cl)[n+]12 [Example I-1-121] | 100 | 1.32 |  |
| COCC(=O)c1c([O-])n(Cc2cnc(OC)s2)c2cc(Cl)cc[n+]12 [Example I-1-124] | 100 | 1.51 |  |
| Cc1ccc2n(Cc3cnc(Cl)s3)c([O-])c(C(=O)CCl)[n+]2c1 [Example I-1-125] | 90 | 1.99 |  |
| Cc1cc[n+]2c(C(=O)CCl)c([O-])n(Cc3cnc(Cl)s3)c2c1 [Example I-1-126] | 90 | 1.96 |  |
| CC(C)NC(=O)c1c([O-])n(Cc2cnc(Cl)s2)c2cccc[n+]12 [Example I-1-131] | 100 | 1.95 |  |
| O=C(NC1CC1)c1c([O-])n(Cc2ccc(Cl)nc2)c2cccc[n+]12 [Example I-1-133] | 90 | 1.85 |  |
| O=C(NC1CCCC1)c1c([O-])n(Cc2cnc(Cl)s2)c2cccc[n+]12 [Example I-1-138] | 100 | 2.35 |  |
| CC(NC(=O)c1c([O-])n(Cc2cnc(Cl)s2)c2cccc[n+]12)c1ccc(Cl)cc1 (centres unmarked) [Example I-1-142] | 100 | 3.13 |  |

| SMILES | efficacy (Myzus persicae) [%] | log p [1] | log p a) [1] |
| --- | --- | --- | --- |
| O=C(Nc1ccc(Cl)nc1)c1c([O-])n(Cc2cnc(Cl)s2)c2cccc[n+]12 [Example I-1-146] | 100 | 2.55 |  |
| CC(C)(C)NC(=O)c1c([O-])n(Cc2cnc(Cl)s2)c2cccc[n+]12 [Example I-1-151] | 100 | 2.39 |  |
| COC(=O)c1c([O-])n(Cc2ccc(Cl)nc2)c2ccc(F)c[n+]12 [Example I-1-155] | 100 | 1.43 |  |
| COC(=O)c1c([O-])n(Cc2ccc(Cl)nc2)c2cccc(C)[n+]12 [Example I-1-157] | 100 | 1.27 |  |
| COC(=O)c1c([O-])n(Cc2cncc(Cl)c2)c2cccc[n+]12 [Example I-1-158] | 100 | 1.15 |  |
| Cc1ccc[n+]2c(C(=O)CCl)c([O-])n(Cc3ccc(Cl)nc3)c12 [Example I-1-159] | 100 | 1.78 |  |
| COC(=O)c1c([O-])n(Cc2ccc(Cl)nc2)c2c(C)ccc[n+]12 [Example I-1-160] | 100 | 1.39 |  |
| COCC(=O)c1c([O-])n(Cc2ccc(Cl)nc2)c2c(Cl)ccc[n+]12 [Example I-1-164] | 90 | 1.59 |  |
| COCC(=O)c1c([O-])n(Cc2ccc(Cl)nc2)c2cccc(C)[n+]12 [Example I-1-166] | 100 | 1.33 |  |
| COCC(=O)c1c([O-])n(Cc2ccc(Cl)nc2)c2ccc(C)c[n+]12 [Example I-1-167] | 100 | 1.48 |  |
| O=C(CCl)c1c([O-])n(Cc2cnc(Cl)c(Cl)c2)c2cccc[n+]12 [Example I-1-168] | 100 | 2.11 |  |
| O=C(NC1CC1)c1c([O-])n(Cc2ccc(Cl)nc2)c2ccc(F)c[n+]12 [Example I-1-170] | 100 | 1.79 |  |
| Cc1cccc2n(Cc3ccc(Cl)nc3)c([O-])c(C(=O)NC3CC3)[n+]12 [Example I-1-171] | 100 | 1.05 |  |
| N#Cc1ccc[n+]2c(C(=O)CCl)c([O-])n(Cc3ccc(Cl)nc3)c12 [Example I-1-172] | 90 | 1.78 |  |
| COCC(=O)c1c([O-])n(Cc2cnc(OC)s2)c2ccc(C)c[n+]12 [Example I-1-173] | 100 | 1.35 |  |
| COCC(=O)c1c([O-])n(Cc2cnc(Cl)s2)c2ccc(C)c[n+]12 [Example I-1-174] | 100 | 1.52 |  |
| CCOCC(=O)c1c([O-])n(Cc2cnc(Cl)s2)c2ccc(C)c[n+]12 [Example I-1-175] | 100 | 1.78 |  |
| CCOCC(=O)c1c([O-])n(Cc2cncc(Cl)c2)c2cccc[n+]12 [Example I-1-177] | 100 | 1.37 |  |
| COCC(=O)c1c([O-])n(Cc2ccc(C(F)(F)F)nc2)c2cccc[n+]12 [Example I-1-180] | 100 | 1.49 |  |
| Cc1ccc[n+]2c(C(=O)NC3CC3)c([O-])n(Cc3ccc(Cl)nc3)c12 [Example I-1-181] | 100 | 1.75 |  |

| SMILES | efficacy (Myzus persicae) [%] | log p [1] | log p a) [1] |
| --- | --- | --- | --- |
| CCOCC(=O)c1c([O-])n(Cc2ccc(Cl)nc2)c2c(C)ccc[n+]12 [Example I-1-182] | 100 | 1.6 |  |
| CCOCC(=O)c1c([O-])n(C(C)c2ccc(Cl)nc2)c2cccc[n+]12 (centres unmarked) [Example I-1-186] | 100 | 1.58 |  |
| CCOCC(=O)c1c([O-])n(Cc2ccc(C(F)(F)F)nc2)c2cccc[n+]12 [Example I-1-188] | 100 | 1.72 |  |
| Cc1cccc2n(Cc3cnc(Cl)s3)c([O-])c(C(=O)NC3CC3)[n+]12 [Example I-1-190] | 100 | 1.16 |  |
| Cc1ccc[n+]2c(C(=O)NCC(C)C)c([O-])n(Cc3ccc(Cl)nc3)c12 [Example I-1-191] | 90 | 2.33 |  |
| CCOCC(=O)c1c([O-])n(Cc2cnc(Cl)c(Cl)c2)c2cccc[n+]12 [Example I-1-192] | 100 | 1.93 |  |
| O=C(NC1CC1)c1c([O-])n(Cc2cncc(Cl)c2)c2cccc[n+]12 [Example I-1-195] | 90 | 1.52 |  |
| COC(=O)c1c([O-])n(C(C)c2ccc(Cl)nc2)c2cccc[n+]12 (centres unmarked) [Example I-1-198] | 100 |  | 1.32 |
| COC(=O)c1c([O-])n(Cc2cnc(Cl)c(Cl)c2)c2cccc[n+]12 [Example I-1-199] | 100 |  | 1.66 |
| O=C(NC1CC1)c1c([O-])n(Cc2ccc(C(F)(F)F)nc2)c2cccc[n+]12 [Example I-1-200] | 90 |  | 1.87 |
| O=C(NC1CC1)c1c([O-])n(Cc2cnc(Cl)c(Cl)c2)c2cccc[n+]12 [Example I-1-201] | 100 |  | 2.08 |
| COCC(=O)c1c([O-])n(Cc2ccc(Cl)nc2)c2c(F)ccc[n+]12 [Example I-1-205] | 100 |  | 1.44 |
| COC(=O)c1c([O-])n(Cc2cnc(Cl)s2)c2c(C)ccc[n+]12 [Example I-1-206] | 100 |  | 1.46 |
| O=C(CCl)c1c([O-])n(Cc2ccc(F)nc2)c2cccc[n+]12 [Example I-1-207] | 100 |  | 1.38 |
| COc1ccc(NC(=O)c2c([O-])n(Cc3cnc(Cl)s3)c3c(C)ccc[n+]23)cc1 [Example I-1-208] | 100 |  | 2.91 |
| O=C(CCl)c1c([O-])n(Cc2cnc(Cl)s2)c2cccc[n+]12 [Example I-1-209] | 100 |  | 1.24 |
| Cc1ccc[n+]2c(C(=O)Nc3ccccc3)c([O-])n(Cc3cnc(Cl)s3)c12 [Example I-1-211] | 90 |  | 3.1 |
| Cc1ccc[n+]2c(C(=O)Nc3c(F)cccc3F)c([O-])n(Cc3cnc(Cl)s3)c12 [Example I-1-212] | 100 |  | 2.73 |

Source: patent publication US20180282323A1, “Mesoionic imidazole derivatives as insecticides” (BAYER CROPSCIENCE AKTIENGESELLSCHAFT, priority 2015, published 2018)
